Data from PubChem BioAssay AID2060511 (Molecular Pharmacology Branch, DTP, NCI, 2025).
“And” between values parts separate entries of the source, which are not always exact repeats. Equal entries are not always repeated.

System: 422866-222-R5-J1-PDC spheroids with HUVEC/MSC, viability
Assay: Anticancer human tumor 422866-222-R5-J1-PDC patient-derived pancreatic adenocarcinoma cell line growth inhibition [GQUAD]
Settings: for viability, T/C: stronger effect = lower value
Text: DNA G-quadruplex Stabilizer Agents in Combinations in Complex Spheroids
A high-throughput screen of multi-cell type tumor spheroids was designed to identify active combinations of DNA G-quadruplex stabilizer agents and targeted small molecules. Complex spheroids include a stromal component modeled by human endothelial cells (HUVEC) and fibroblasts modeled by human mesenchymal stem cells (MSCs). The concentration ranges selected for each drug and investigational agent were based upon clinically achievable concentrations if the clinical Cmax of the agent was known.
Compounds. The drugs and investigational agents: pidnarulex (CX-5461; NSC782164), APTO-253 (NSC789042), BRACO-19 (NSC847499), peposertib (NSC802822), ceralasertib (NSC780249), elimusertib (NSC800525), camonsertib (NSC841442), AZD-1390 (NSC803789), olaparib (NSC753686), talazoparib (NSC767125), ART-558 (NSC835418), sotorasib (NSC818433), MRTX-1133 (NSC836407), SN-38 (NSC673596), topotecan (NSC609699), etoposide (NSC141540), doxorubicin (NSC123127), gemcitabine (NSC613327), 5-fluorouracil (NSC19893), paclitaxel (NSC125973), vemurafenib (NSC761431), panobinostat (NSC761190), R-306465 (JNJ-16241199; NSC773264), adavosertib (NSC754352), TP-3654 (NSC805149), carboplatin (NSC241240), KSQ-4279 (NSC840948), and staurosporine (NSC755774) were obtained from the National Cancer Institute (NCI) Developmental Therapeutics Program Chemical Repository (34). The FDA-approved anticancer drug set is available from the NCI Developmental Therapeutics Program. […] The stock solutions were prepared in dimethyl sulfoxide (DMSO, Sigma-Aldrich, St. Louis, MO, cat. D2650) at 800-fold the tested concentration and stored at -70 degrees C prior to their use. All drugs and investigational agents were tested over a range starting from a high concentration at or near the clinical Cmax and decreasing in half-log increments. If the clinical Cmax for an agent had not been determined, the highest concentration tested was 10 microM.
2.3 Cell Culture. All cells were maintained in an incubator at 37 degrees C and 5% CO2 with 95% humidity. The PDC lines were cultured according to standard operating procedures established by the NCI PDMR. All PDCs were thawed and cultured in Matrigel-coated flasks prepared with a working solution of 1X Ham's F-12 nutrient mix, without supplementation (Invitrogen, cat. 11765054), 100 U/mL penicillin-streptomycin (Invitrogen, cat. 15140122), and 2.5% Matrigel (Corning Inc., cat. 354248) for the first three passages. The 857933-349-R-J2-PDC line was cultured in 6C/Colon 1B media, which includes advanced DMEM/F-12 (Thermo Fisher Scientific, cat. 12634028), 10 mM HEPES (Thermo Fisher Scientific, cat. 15630080), 1X GlutaMAX supplement (Thermo Fisher Scientific, cat. 35050061), 0.1 mg/mL primocin (InvivoGen, cat. ant-pm-2), 10% defined fetal bovine serum, heat inactivated (HyClone Laboratories Inc., cat. SH30070.03HI), 50% L-WRN conditioned media (ATCC, cat. CRL-3276), 1.25 mM N-Acetyl-L-cysteine (Sigma-Aldrich, cat. A9165), 10 mM nicotinamide (Sigma-Aldrich, cat. N0636), 1X B-27 supplement (Thermo Fisher Scientific, cat. 17504044), 1X N-2 supplement (Thermo Fisher Scientific, cat. 17502048), 10 microM Y-27632 dihydrochloride (Tocris Bioscience, cat. 1254), and 50 ng/mL human EGF recombinant protein (Thermo Fisher Scientific, cat. PHG0311). The 485176-168-R4-J1-PDC line was cultured in Panc media, which includes all 6C/Colon 1B media components plus 100 ng/mL human FGF-10 (Thermo Fisher Scientific, cat. 100-26), 500 nM SB-431542 (Selleckchem, cat. S1067), and gastrin (Tocris, cat. 3006).
[…]

[1] = curve of first compound, second compound 0.0316 µM
[2] = curve of first compound, second compound 0.1 µM
[3] = curve of first compound, second compound 0.316 µM
[4] = curve of first compound, second compound 1 µM
[5] = curve of first compound, second compound 3.16 µM
[6] = curve of first compound, second compound 10 µM
[7] = second compound 0.0316 µM, first compound 0.0316 µM
[8] = second compound 0.0316 µM, first compound 0.316 µM
[9] = second compound 0.1 µM, first compound 0.0316 µM
[10] = second compound 0.1 µM, first compound 0.316 µM
[11] = second compound 0.316 µM, first compound 0.0316 µM
[12] = second compound 0.316 µM, first compound 0.316 µM
[13] = second compound 1 µM, first compound 0.0316 µM
[14] = second compound 1 µM, first compound 0.316 µM
[15] = second compound 3.16 µM, first compound 0.0316 µM
[16] = second compound 3.16 µM, first compound 0.316 µM
[17] = second compound 10 µM, first compound 0.0316 µM
[18] = second compound 10 µM, first compound 0.316 µM
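Note: spheroids exposed to compounds for seven days before reading.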
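Throughout, for viability, T/C: percent viability relative to DMSO vehicle control taken as 100%.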

Cc1[nH]c2ccccc2c1CCNCc1ccc(/C=C/C(=O)NO)cc1 + Cc1cnc(CNC(=O)c2c(=O)c3ccc(N4CCCN(C)CC4)nc3n3c2sc2ccccc23)cn1
IC50 [1]: > 316 nM | IC50 [2]: 277 nM | IC50 [3]: > 316 nM | IC50 [4]: > 316 nM | IC50 [5]: 269 nM | IC50 [6]: 227 nM | viability, T/C (second compound 0.0316 µM, first compound 0.000999 µM): 99.8% | viability, T/C (second compound 0.0316 µM, first compound 0.00316 µM): 94.7% | viability, T/C (second compound 0.0316 µM, first compound 0.00999 µM): 83.5% | viability, T/C [7]: 65.8% | viability, T/C (second compound 0.0316 µM, first compound 0.0999 µM): 77.8% | viability, T/C [8]: 46.8% | viability, T/C (second compound 0.1 µM, first compound 0.000999 µM): 91.6% | viability, T/C (second compound 0.1 µM, first compound 0.00316 µM): 86.7% | viability, T/C (second compound 0.1 µM, first compound 0.00999 µM): 83.4% | viability, T/C [9]: 66.6% | viability, T/C (second compound 0.1 µM, first compound 0.0999 µM): 68% | viability, T/C [10]: 46.6% | viability, T/C (second compound 0.316 µM, first compound 0.000999 µM): 79.5% | viability, T/C (second compound 0.316 µM, first compound 0.00316 µM): 73.9% | viability, T/C (second compound 0.316 µM, first compound 0.00999 µM): 80.3% | viability, T/C [11]: 78.8% | viability, T/C (second compound 0.316 µM, first compound 0.0999 µM): 67.4% | viability, T/C [12]: 55.9% | viability, T/C (second compound 1 µM, first compound 0.000999 µM): 75.2% | viability, T/C (second compound 1 µM, first compound 0.00316 µM): 72.6% | viability, T/C (second compound 1 µM, first compound 0.00999 µM): 74.3% | viability, T/C [13]: 62.6% | viability, T/C (second compound 1 µM, first compound 0.0999 µM): 70.4% | viability, T/C [14]: 63.7% | viability, T/C (second compound 3.16 µM, first compound 0.000999 µM): 73.8% | viability, T/C (second compound 3.16 µM, first compound 0.00316 µM): 78.6% | viability, T/C (second compound 3.16 µM, first compound 0.00999 µM): 87.4% | viability, T/C [15]: 78.8% | viability, T/C (second compound 3.16 µM, first compound 0.0999 µM): 76.1% | viability, T/C [16]: 45.8% | viability, T/C (second compound 10 µM, first compound 0.000999 µM): 75.2% | viability, T/C (second compound 10 µM, first compound 0.00316 µM): 67.8% | viability, T/C (second compound 10 µM, first compound 0.00999 µM): 68.7% | viability, T/C [17]: 84.5% | viability, T/C (second compound 10 µM, first compound 0.0999 µM): 70.3% | viability, T/C [18]: 41.4%

COc1ncnc(C2CC2)c1-c1ncc2cnn(Cc3ccc(-c4nc(C(F)(F)F)cn4C(C)C)cc3)c2n1 + Cc1[nH]c2ccc(F)cc2c1-c1nc2c3cccnc3c3ncccc3c2[nH]1
IC50 [1]: 8040 nM | IC50 [2]: > 10000 nM | IC50 [3]: > 10000 nM | IC50 [4]: > 10000 nM | IC50 [5]: > 10000 nM | IC50 [6]: > 10000 nM | viability, T/C [7]: 91.9% | viability, T/C (second compound 0.0316 µM, first compound 0.1 µM): 96.2% | viability, T/C [8]: 111% | viability, T/C (second compound 0.0316 µM, first compound 1 µM): 87.1% | viability, T/C (second compound 0.0316 µM, first compound 3.16 µM): 64.6% | viability, T/C (second compound 0.0316 µM, first compound 10 µM): 46.4% | viability, T/C [9]: 106% | viability, T/C (second compound 0.1 µM, first compound 0.1 µM): 97.4% | viability, T/C [10]: 110% | viability, T/C (second compound 0.1 µM, first compound 1 µM): 99.2% | viability, T/C (second compound 0.1 µM, first compound 3.16 µM): 63.1% | viability, T/C (second compound 0.1 µM, first compound 10 µM): 49.8% | viability, T/C [11]: 93% | viability, T/C (second compound 0.316 µM, first compound 0.1 µM): 116% | viability, T/C [12]: 106% | viability, T/C (second compound 0.316 µM, first compound 1 µM): 90.1% | viability, T/C (second compound 0.316 µM, first compound 3.16 µM): 66.3% | viability, T/C (second compound 0.316 µM, first compound 10 µM): 55.2% | viability, T/C [13]: 86% | viability, T/C (second compound 1 µM, first compound 0.1 µM): 110% | viability, T/C [14]: 105% | viability, T/C (second compound 1 µM, first compound 1 µM): 104% | viability, T/C (second compound 1 µM, first compound 3.16 µM): 72.7% | viability, T/C (second compound 1 µM, first compound 10 µM): 54.2% | viability, T/C [15]: 67.6% | viability, T/C (second compound 3.16 µM, first compound 0.1 µM): 70.7% | viability, T/C [16]: 71.7% | viability, T/C (second compound 3.16 µM, first compound 1 µM): 77.5% | viability, T/C (second compound 3.16 µM, first compound 3.16 µM): 63.6% | viability, T/C (second compound 3.16 µM, first compound 10 µM): 60.8% | viability, T/C [17]: 58.2% | viability, T/C (second compound 10 µM, first compound 0.1 µM): 53.3% | viability, T/C [18]: 73.5% | viability, T/C (second compound 10 µM, first compound 1 µM): 47.7% | viability, T/C (second compound 10 µM, first compound 3.16 µM): 60.6% | viability, T/C (second compound 10 µM, first compound 10 µM): 50.2%

O=c1[nH]cc(F)c(=O)[nH]1
viability, T/C (compound 0.0316 µM): 103% and 89.7% and 95.6% | viability, T/C (compound 0.1 µM): 93.4% and 92.9% and 86.8% | viability, T/C (compound 0.316 µM): 91% and 104% and 109% | viability, T/C (compound 1 µM): 88% and 89.2% and 87.2% | viability, T/C (compound 3.16 µM): 78.2% and 73.6% and 76.3% | viability, T/C (compound 10 µM): 71.8% and 68.2% and 62.4% | IC50 (curve of compound): > 10000 nM
